From US11331369B2, “Endoparasitic depsipeptides” (Zoetis Services LLC, priority 2017, dated 2022)

Tested on: microfilariae of Dirofilaria immitis
Experiment: Dirofilaria immitis, Microfilaria (DiMF) In vitro Assay
Assay type: cell-based
Conditions: 72 h, read-out: DiMF Minimum Effective Dose (MED), approximately 72 hours incubation, microfilariae assessed for survival or paralysis

| Compound | minimal effective concentration [µM] |
| --- | --- |
| CC(C)C[C@H]1C(=O)O[C@H](Cc2ccc(Cn3nc(CO)cc3CO)cc2)C(=O)N(C)[C@@H](CC(C)C)C(=O)O[C@H](C)C(=O)N(C)[C@@H](CC(C)C)C(=O)O[C@H](Cc2ccc(Cn3nc(C#N)cc3C#N)cc2)C(=O)N(C)[C@@H](CC(C)C)C(=O)O[C@H](C)C(=O)N1C [Example 1a-2, 1-(4-(((2R,5S,8R,11S,14R,17S,20R,23S)-14-(4-((3,5-bis(hydroxymethyl)-1H-pyrazol-1-yl)methyl)benzyl)-5,11,17,23-tetraisobutyl-4,8,10,16,20,22-hexamethyl-3,6,9,12,15,18,21,24-octaoxo-1,7,13,19-tetraoxa-4,10,16,22-tetraazacyclotetracosan-2-yl)methyl)benzyl)-1H-pyrazole-3,5-dicarbonitrile] | 0.001 to 0.01 |
| CC(C)C[C@H]1C(=O)O[C@H](Cc2ccc(Cn3nc(-c4ccco4)cc3CO)cc2)C(=O)N(C)[C@@H](CC(C)C)C(=O)O[C@H](C)C(=O)N(C)[C@@H](CC(C)C)C(=O)O[C@H](Cc2ccc(Cn3nc(C#N)cc3C#N)cc2)C(=O)N(C)[C@@H](CC(C)C)C(=O)O[C@H](C)C(=O)N1C [Example 1a-3, 1-(4-(((2R,5S,8R,11S,14R,17S,20R,23S)-14-(4-((3-(furan-2-yl)-5-(hydroxymethyl)-1H-pyrazol-1-yl)methyl)benzyl)-5,11,17,23-tetraisobutyl-4,8,10,16,20,22-hexamethyl-3,6,9,12,15,18,21,24-octaoxo-1,7,13,19-tetraoxa-4,10,16,22-tetraazacyclotetracosan-2-yl)methyl)benzyl)-1H-pyrazole-3,5-dicarbonitrile] | 0.01 to 0.1 |
| CC(C)C[C@H]1C(=O)O[C@H](Cc2ccc(Cn3nc(C4CC4)cc3C3CC3)cc2)C(=O)N(C)[C@@H](CC(C)C)C(=O)O[C@H](C)C(=O)N(C)[C@@H](CC(C)C)C(=O)O[C@H](Cc2ccc(Cn3nc(-c4ccco4)cc3CO)cc2)C(=O)N(C)[C@@H](CC(C)C)C(=O)O[C@H](C)C(=O)N1C [Example 1a-6, (3S,6R,9S,12R,15S,18R,21S,24R)-6-(4-((3,5-dicyclopropyl-1H-pyrazol-1-yl)methyl)benzyl)-18-(4-((3-(furan-2-yl)-5-(hydroxymethyl)-1H-pyrazol-1-yl)methyl)benzyl)-3,9,15,21-tetraisobutyl-4,10,12,16,22,24-hexamethyl-1,7,13,19-tetraoxa-4,10,16,22-tetraazacyclotetracosan-2,5,8,11,14,17,20,23-octaone] | 0.01 to 0.1 |
| Cc1nn(Cc2ccc(C[C@H]3OC(=O)[C@H](CC(C)C)N(C)C(=O)[C@@H](C)OC(=O)[C@H](CC(C)C)N(C)C(=O)[C@@H](Cc4ccc(Cn5nc(C6CC6)cc5C5CC5)cc4)OC(=O)[C@H](CC(C)C)N(C)C(=O)[C@@H](C)OC(=O)[C@H](CC(C)C)N(C)C3=O)cc2)cc1CO [Example 1a-8, (3S,6R,9S,12R,15S,18R,21S,24R)-6-(4-((3,5-dicyclopropyl-1H-pyrazol-1-yl)methyl)benzyl)-18-(4-((4-(hydroxymethyl)-3-methyl-1H-pyrazol-1-yl)methyl)benzyl)-3,9,15,21-tetraisobutyl-4,10,12,16,22,24-hexamethyl-1,7,13,19-tetraoxa-4,10,16,22-tetraazacyclotetracosan-2,5,8,11,14,17,20,23-octaone] | 0.01 to 0.1 |
| CC(C)C[C@H]1C(=O)O[C@H](Cc2ccc(Cn3cc(-c4ccccc4)cn3)cc2)C(=O)N(C)[C@@H](CC(C)C)C(=O)O[C@H](C)C(=O)N(C)[C@@H](CC(C)C)C(=O)O[C@H](Cc2ccc(Cn3cccn3)cc2)C(=O)N(C)[C@@H](CC(C)C)C(=O)O[C@H](C)C(=O)N1C [Example 1a-15, (3S,6R,9S,12R,15S,18R,21S,24R)-6-(4-((1H-pyrazol-1-yl)methyl)benzyl)-3,9,15,21-tetraisobutyl-4,10,12,16,22,24-hexamethyl-18-(4-((4-phenyl-1H-pyrazol-1-yl)methyl)benzyl)-1,7,13,19-tetraoxa-4,10,16,22-tetraazacyclotetracosan-2,5,8,11,14,17,20,23-octaone] | 0.01 to 0.1 |
| CC(C)C[C@H]1C(=O)O[C@H](Cc2ccc(Cn3cc(-c4ccc(Cl)cc4)cn3)cc2)C(=O)N(C)[C@@H](CC(C)C)C(=O)O[C@H](C)C(=O)N(C)[C@@H](CC(C)C)C(=O)O[C@H](Cc2ccc(Cn3cccn3)cc2)C(=O)N(C)[C@@H](CC(C)C)C(=O)O[C@H](C)C(=O)N1C [Example 1a-18, (3S,6R,9S,12R,15S,18R,21S,24R)-6-(4-((1H-pyrazol-1-yl)methyl)benzyl)-18-(4-((4-(4-chlorophenyl)-1H-pyrazol-1-yl)methyl)benzyl)-3,9,15,21-tetraisobutyl-4,10,12,16,22,24-hexamethyl-1,7,13,19-tetraoxa-4,10,16,22-tetraazacyclotetracosan-2,5,8,11,14,17,20,23-octaone] | 0.01 to 0.1 |
| Cc1cnn(Cc2ccc(C[C@H]3OC(=O)[C@H](CC(C)C)N(C)C(=O)[C@@H](C)OC(=O)[C@H](CC(C)C)N(C)C(=O)[C@@H](Cc4ccc(Cn5cc(-c6ccccc6)cn5)cc4)OC(=O)[C@H](CC(C)C)N(C)C(=O)[C@@H](C)OC(=O)[C@H](CC(C)C)N(C)C3=O)cc2)c1 [Example 1a-19, (3S,6R,9S,12R,15S,18R,21S,24R)-3,9,15,21-tetraisobutyl-4,6,10,16,18,22-hexamethyl-12-(4-((4-methyl-1H-pyrazol-1-yl)methyl)benzyl)-24-(4-((4-phenyl-1H-pyrazol-1-yl)methyl)benzyl)-1,7,13,19-tetraoxa-4,10,16,22-tetraazacyclotetracosan-2,5,8,11,14,17,20,23-octaone] | 0.01 to 0.1 |
| Cc1cnn(Cc2ccc(C[C@H]3OC(=O)[C@H](CC(C)C)N(C)C(=O)[C@@H](C)OC(=O)[C@H](CC(C)C)N(C)C(=O)[C@@H](Cc4ccc(Cn5cc(-c6ccc(F)cc6)cn5)cc4)OC(=O)[C@H](CC(C)C)N(C)C(=O)[C@@H](C)OC(=O)[C@H](CC(C)C)N(C)C3=O)cc2)c1 [Example 1a-22, (3S,6R,9S,12R,15S,18R,21S,24R)-6-(4-((4-(4-fluorophenyl)-1H-pyrazol-1-yl)methyl)benzyl)-3,9,15,21-tetraisobutyl-4,10,12,16,22,24-hexamethyl-18-(4-((4-methyl-1H-pyrazol-1-yl)methyl)benzyl)-1,7,13,19-tetraoxa-4,10,16,22-tetraazacyclotetracosan-2,5,8,11,14,17,20,23-octaone] | 0.01 to 0.1 |
| Cc1cnn(Cc2ccc(C[C@H]3OC(=O)[C@H](CC(C)C)N(C)C(=O)[C@@H](C)OC(=O)[C@H](CC(C)C)N(C)C(=O)[C@@H](Cc4ccc(Cn5nc(C)c(S(=O)(=O)N6CCCC6)c5C)cc4)OC(=O)[C@H](CC(C)C)N(C)C(=O)[C@@H](C)OC(=O)[C@H](CC(C)C)N(C)C3=O)cc2)c1 [Example 1a-23, (3S,6R,9S,12R,15S,18R,21S,24R)-6-(4-((3,5-dimethyl-4-(pyrrolidin-1-ylsulfonyl)-1H-pyrazol-1-yl)methyl)benzyl)-3,9,15,21-tetraisobutyl-4,10,12,16,22,24-hexamethyl-18-(4-((4-methyl-1H-pyrazol-1-yl)methyl)benzyl)-1,7,13,19-tetraoxa-4,10,16,22-tetraazacyclotetracosan-2,5,8,11,14,17,20,23-octaone] | 0.01 to 0.1 |
